In ChEMBL document CHEMBL5625221, “Discovery of indolinone-bearing benzenesulfonamides as new dual carbonic anhydrase and VEGFR-2 inhibitors possessing anticancer and pro-apoptotic properties” (Eur J Med Chem, 2023):

Legend:
Carbonic anhydrase 9 = Carbonic anhydrase 9 (Homo sapiens, UniProt Q16790); test: Inhibition of human carbonic anhydrase 9 assessed as inhibition constant preincubated for 15 mins by phenol red dye based stopped flow CO2 hydration assay
MCF7 [1] = test: cells; settings: Homo sapiens, MCF7, 48 h
Description: Antiproliferative activity against human MCF7 cells assessed as inhibition of cell growth incubated for 48 hrs by WST-1 reagent based ELISA

HCT-116 = test: cells; settings: Homo sapiens, HCT-116, 48 h
Description: Antiproliferative activity against human HCT-116 cells assessed as inhibition of cell growth incubated for 48 hrs by WST-1 reagent based ELISA

[2] = target: Vascular endothelial growth factor receptor 2 (Homo sapiens, UniProt P35968); test: Inhibition of VEGFR-2 (unknown origin) using biotinylated poly(Glu-Tyr) at 4:1 ratio as substrate in presence of ATP incubated for 5 mins by ELISA
Chain of Vascular endothelial growth factor receptor 2 (P35968 whole entry): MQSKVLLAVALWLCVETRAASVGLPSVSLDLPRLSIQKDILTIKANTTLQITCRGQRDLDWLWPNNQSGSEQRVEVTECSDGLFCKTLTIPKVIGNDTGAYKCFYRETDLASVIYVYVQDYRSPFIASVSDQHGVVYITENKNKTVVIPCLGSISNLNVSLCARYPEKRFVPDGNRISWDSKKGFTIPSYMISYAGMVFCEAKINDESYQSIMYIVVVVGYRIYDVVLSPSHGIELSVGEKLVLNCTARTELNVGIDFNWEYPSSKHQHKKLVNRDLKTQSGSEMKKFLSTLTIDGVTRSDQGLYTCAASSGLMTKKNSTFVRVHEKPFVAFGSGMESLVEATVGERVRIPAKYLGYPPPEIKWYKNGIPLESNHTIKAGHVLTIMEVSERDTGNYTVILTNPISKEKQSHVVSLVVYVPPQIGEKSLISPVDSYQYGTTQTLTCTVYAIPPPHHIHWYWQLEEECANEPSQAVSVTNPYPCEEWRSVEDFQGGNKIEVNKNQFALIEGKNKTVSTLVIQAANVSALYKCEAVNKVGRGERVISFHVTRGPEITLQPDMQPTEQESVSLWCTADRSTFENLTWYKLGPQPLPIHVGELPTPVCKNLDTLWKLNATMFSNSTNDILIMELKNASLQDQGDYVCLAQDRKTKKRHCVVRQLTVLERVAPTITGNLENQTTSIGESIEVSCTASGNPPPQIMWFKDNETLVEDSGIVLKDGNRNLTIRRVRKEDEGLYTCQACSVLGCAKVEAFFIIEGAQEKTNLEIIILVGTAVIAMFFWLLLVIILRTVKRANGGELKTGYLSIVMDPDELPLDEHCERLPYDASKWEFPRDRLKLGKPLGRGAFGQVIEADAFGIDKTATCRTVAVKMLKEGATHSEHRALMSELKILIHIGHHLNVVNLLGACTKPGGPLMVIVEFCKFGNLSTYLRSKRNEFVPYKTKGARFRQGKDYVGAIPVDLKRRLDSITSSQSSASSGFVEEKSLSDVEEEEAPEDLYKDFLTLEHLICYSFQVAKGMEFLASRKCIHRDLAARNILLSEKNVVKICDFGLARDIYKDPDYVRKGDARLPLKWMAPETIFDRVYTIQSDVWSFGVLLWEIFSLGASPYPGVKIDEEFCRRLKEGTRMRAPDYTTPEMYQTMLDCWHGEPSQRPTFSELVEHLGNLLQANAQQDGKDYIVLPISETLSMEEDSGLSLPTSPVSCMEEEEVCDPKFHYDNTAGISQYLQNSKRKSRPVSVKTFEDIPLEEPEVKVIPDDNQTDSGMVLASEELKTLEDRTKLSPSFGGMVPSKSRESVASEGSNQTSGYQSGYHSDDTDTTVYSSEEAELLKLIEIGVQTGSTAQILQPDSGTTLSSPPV

MDA-MB-231 [3] = test: cells; settings: Homo sapiens, MDA-MB-231, 48 h
Description: Antiproliferative activity against human MDA-MB-231 cells assessed as inhibition of cell growth incubated for 48 hrs by MTT reagent based ELISA

MCF7 [4] = test: cells; settings: Homo sapiens, MCF7, 48 h; remark: listed apart in the source
Description: Antiproliferative activity against human MCF7 cells assessed as inhibition of cell growth incubated for 48 hrs by MTT reagent based ELISA

MDA-MB-231 [5] = test: Induction of apoptosis in human MDA-MB-231 cells assessed as active caspase-3 protein level incubated for 24 hrs by ELISA; format: functional
MDA-MB-231 [6] = test: Induction of apoptosis in human MDA-MB-231 cells assessed as Bax protein level incubated for 24 hrs by ELISA; format: functional
MDA-MB-231 [7] = test: Induction of apoptosis in human MDA-MB-231 cells assessed as BCL-2 protein level incubated for 24 hrs by ELISA; format: functional
MDA-MB-231 [8] = test: Induction of apoptosis in human MDA-MB-231 cells assessed as decrease in BCL-2 protein level incubated for 24 hrs by ELISA relative to control; format: functional; design: scale not given: the % may be the effect or the level left
Caco-2 = test: cells; settings: Homo sapiens, Caco-2, 24 h
Description: Antiproliferative activity against human Caco-2 cells assessed as inhibition of cell growth incubated for 24 hrs by MTS assay

SMILES	Ki (Carbonic anhydrase 9)	also measured
Cc1ccc2c(c1)NC(=O)/C2=N\NC(=O)C1CCCN(CC(=O)Nc2ccc(S(N)(=O)=O)cc2)C1 (centres undefined)	15.8 nM	–
NS(=O)(=O)c1ccc(CC/N=C2\C(=O)Nc3ccc(Cl)cc32)cc1	28.7 nM	IC50 (MCF7 [1]): 23900 nM; IC50 (HCT-116): 3670 nM
CC(C(=O)Nc1ccc(S(N)(=O)=O)cc1)N1CCCC(C(=O)N/N=C2\C(=O)N(Cc3ccc(Cl)cc3)c3ccccc32)C1 (centres undefined)	19.2 nM	–
NS(=O)(=O)c1ccc(NC(=O)CN2CCC(C(=O)N/N=C3\C(=O)Nc4ccc(F)cc43)CC2)cc1	6.2 nM	IC50 [2]: 811 nM; IC50 (MDA-MB-231 [3]): 18900 nM; IC50 (MCF7 [4]): 29300 nM
O=c1[nH]cc(F)c(=O)[nH]1 [FLUOROURACIL]	–	IC50 (MDA-MB-231 [3]): 8700 nM; IC50 (MCF7 [4]): 5170 nM
CC(C(=O)Nc1ccc(S(N)(=O)=O)cc1)N1CCCC(C(=O)N/N=C2\C(=O)N(Cc3ccc(F)cc3)c3ccccc32)C1 (centres undefined)	9.8 nM	–
NS(=O)(=O)c1ccc(NC(=O)CN2CCCC(C(=O)N/N=C3\C(=O)Nc4ccccc43)C2)cc1 (centres undefined)	52.8 nM	–
CC(C(=O)Nc1ccc(S(N)(=O)=O)cc1)N1CCCC(C(=O)N/N=C2\C(=O)Nc3cc([N+](=O)[O-])ccc32)C1 (centres undefined)	29.4 nM	–
NS(=O)(=O)c1ccc(NC(=O)CN2CCC(C(=O)N/N=C3\C(=O)N(Cc4ccccc4)c4ccccc43)CC2)cc1	12.8 nM	–
NS(=O)(=O)c1ccc(NC(=O)CN2CCC(C(=O)NN=C3C(=O)Nc4ccc(Br)cc43)CC2)cc1	27.9 nM	–
NS(=O)(=O)c1ccc(NC(=O)CN2CCCC(C(=O)NN=C3C(=O)Nc4cc(F)ccc43)C2)cc1 (centres undefined)	35.4 nM	–
COc1ccc2c(c1)NC(=O)C2=NNC(=O)C1CCCN(CC(=O)Nc2ccc(S(N)(=O)=O)cc2)C1 (centres undefined)	19 nM	–
NS(=O)(=O)c1ccc(NC(=O)CN2CCCC(C(=O)N/N=C3\C(=O)Nc4cc(Br)ccc43)C2)cc1 (centres undefined)	65.9 nM	–
NS(=O)(=O)c1ccc(NC(=O)CN2CCCC(C(=O)N/N=C3\C(=O)N(Cc4ccccc4)c4ccccc43)C2)cc1 (centres undefined)	21.4 nM	–
CC(C(=O)Nc1ccc(S(N)(=O)=O)cc1)N1CCCC(C(=O)N/N=C2\C(=O)Nc3ccccc32)C1 (centres undefined)	3.6 nM	Activity (MDA-MB-231 [5]): 509 pg/mL; IC50 [2]: 204 nM; IC50 (MDA-MB-231 [3]): 4080 nM; IC50 (MCF7 [4]): 10000 nM; Activity (MDA-MB-231 [6]): 265 pg/mL; Activity (MDA-MB-231 [7]): 3.31 ng/mL; Activity (MDA-MB-231 [8]): 76%
NS(=O)(=O)c1ccc(NC(=O)CN2CCC(C(=O)NN=C3C(=O)Nc4ccc(Cl)cc43)CC2)cc1	14.3 nM	–
NS(=O)(=O)c1ccc(NC(=O)CN2CCC(C(=O)NN=C3C(=O)Nc4ccccc43)CC2)cc1	24.8 nM	–
O=C(CN1C(=O)S/C(=C2/C(=O)Nc3ccccc32)C1=O)Nc1ccccc1	–	IC50 (Caco-2): 9300 nM
NS(=O)(=O)c1ccc(NC(=O)CN2CCCC(C(=O)N/N=C3\C(=O)Nc4cc(Cl)ccc43)C2)cc1 (centres undefined)	22.1 nM	–
CC(C(=O)Nc1ccc(S(N)(=O)=O)cc1)N1CCCC(C(=O)N/N=C2\C(=O)Nc3cc(F)ccc32)C1 (centres undefined)	5.1 nM	–
CN1C(=O)/C(=N\NC(=O)C2CCCN(CC(=O)Nc3ccc(S(N)(=O)=O)cc3)C2)c2ccccc21 (centres undefined)	33.5 nM	–
CC(C(=O)Nc1ccc(S(N)(=O)=O)cc1)N1CCCC(C(=O)N/N=C2\C(=O)Nc3cc(Br)ccc32)C1 (centres undefined)	9.8 nM	–
COc1ccc2c(c1)NC(=O)C2=NNC(=O)C1CCCN(C(C)C(=O)Nc2ccc(S(N)(=O)=O)cc2)C1 (centres undefined)	4.2 nM	IC50 [2]: 358 nM; IC50 (MDA-MB-231 [3]): 7200 nM; IC50 (MCF7 [4]): 11300 nM
